# Reference: US9981986B2, “Antimicrobial compounds” (OXFORD UNIVERSITY INNOVATION LIMITED, priority 2012, dated 2018)
# What was measured:
# [1] = tested on: Staphylococcus aureus N.C.T.C. 6571; assay: hole-plate method, inhibition zones, S. aureus; format: cell-based; settings: inhibition zone diameter
# Protocol: (§1) Various compounds illustrative of the compounds of the present invention were synthesised and tested for their bioactivity. Microbiological assays were performed by the hole-plate method with the test organism Staphylococcus aureus N.C.T.C. 6571 or E. coli X580. […] The diameters of the resultant inhibition zones were measured.
# [2] = tested on: E. coli X580; assay: hole-plate method, inhibition zones, E. coli; format: cell-based; settings: inhibition zone diameter
# Protocol: as §1
# [3] = tested on: human embryonic kidney 293 cells; assay: in vitro toxicities against human embryonic kidney 293 cells; format: cell-based
# Excerpt: (§2) These properties can be determined according to techniques that are well known in the art.
# [4] = format: physicochemical; settings: pH 7.4
# Excerpt: as §2
# [5] = tested on: S. aureus 26, ATCC25923 (vancomycin susceptible); assay: MIC determination (bacteria), S26; format: cell-based
# Protocol: (§3) MIC Determination (Bacteria);
# (§4) MICs were determined based on Clinical and Laboratory Standards Institute (CLSI) methodology (Methods for dilution antimicrobial susceptibility tests for bacteria that grow aerobically; Approved Standard—seventh edition. 2006, M7-A7, CLSI, Wayne Pa.) by a 2-fold broth dilution technique in Mueller Hinton (pH7.4 Biorad). For S. pneumoniae, the medium was supplemented with 2.5% laked horse blood. For H. influenzae, the medium was haemophilus test medium (H.T.M.). Overnight cultures were diluted to obtain the final inoculum of 10^5 cfu/well. Incubation was 37° C. overnight in ambient air. The MIC was defined as the lowest concentration which inhibited all visual growth and expressed in μg/ml. For each bacterial species, all of the molecules were tested in the same experiment in order to give a head-to-head comparison.
# [6] = tested on: S. aureus 4, Oxford; assay: MIC determination (bacteria), S4; format: cell-based
# Protocol: as §3, §4
# [7] = tested on: E. faecium 1, VanA (vancomycin resistant); assay: MIC determination (bacteria), E2; format: cell-based
# Protocol: as §3, §4
# [8] = tested on: S. pneumonia 9, (multi-drug resistant); assay: MIC determination (bacteria), P9 / P9B; format: cell-based; settings: for MIC P9: S. pneumonia 9, multi-drug resistant; for MIC P9B: S. pneumonia 9 in presence of 2.5% horse blood
# Protocol: as §3, §4
# [9] = tested on: Candida albicans; assay: MIC determination (fungus), Candida albicans; format: cell-based
# Protocol: MIC Determination (Fungus); MICs were determined for the antifungus by microdilution methods using RPMI 1640 medium buffered with morpholinopropanesulfonic acid (MOPS) and supplemented with L-glutamine as described by CLSI procedures (M27-A method) (Reference method for broth dilution antifungal susceptibility testing of yeasts; Approved standard—[…]. 2006, M27-A2, CLSI, Wayne Pa.).
# [10] = tested on: H. influenzae 4, LS2 Efflux ko; assay: MIC determination (bacteria), H4; format: cell-based
# Protocol: as §3, §4
# [11] = target: T1, S. pneumonia UPPS (Streptococcus pneumoniae serotype 4, UniProt Q97SR4); assay: In vitro activity against S. pneumonia UPPS; format: biochemical; settings: read-out: UPP IC50
# T1 sequence (Q97SR4 1-252): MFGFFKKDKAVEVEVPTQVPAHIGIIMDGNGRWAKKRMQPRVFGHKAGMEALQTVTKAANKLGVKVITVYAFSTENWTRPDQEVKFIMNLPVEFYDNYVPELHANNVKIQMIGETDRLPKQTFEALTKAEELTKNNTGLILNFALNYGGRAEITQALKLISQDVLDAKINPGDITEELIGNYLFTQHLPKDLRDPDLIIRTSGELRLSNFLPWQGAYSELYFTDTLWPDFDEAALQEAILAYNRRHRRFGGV
# Excerpt: as §2
# [12] = tested on: E. faecalis 1, ATCC29212 VanS (vancomycin susceptible); assay: MIC determination (bacteria), E1; format: cell-based
# Protocol: as §3, §4
# [13] = tested on: H. influenzae 3, ATCC31517 MMSA; assay: MIC determination (bacteria), H3; format: cell-based
# Protocol: as §3, §4
# [14] = tested on: S. aureus 2, (MRSA in vivo); assay: MIC determination (bacteria), S2; format: cell-based
# Protocol: as §3, §4
# [15] = target: E. Coli RNAP (Escherichia coli, UniProt P0A8T7+P0A8V2); assay: In vitro activity against E. Coli RNAP; format: biochemical; settings: read-out: RNA IC50
# Excerpt: as §2
# [16] = tested on: S. aureus 1, ATCC13709 in vivo (methicillin sensitive); assay: MIC determination (bacteria), S1; format: cell-based
# Protocol: as §3, §4
# [17] = tested on: human peripheral blood cells; assay: in vitro toxicities human peripheral blood cells; format: cell-based
# Excerpt: as §2
# [18] = tested on: S. pneumonia 1, ATCC49619 (erythromycin susceptible); assay: MIC determination (bacteria), P1; format: cell-based
# Protocol: as §3, §4
# [19] = tested on: S. aureus membrane; assay: In vitro activity in depolarization of S. aureus membrane; format: cell-based; settings: read-out: DEP IC50
# Excerpt: as §2
# [20] = tested on: mammalian_red blood cell membrane; assay: In vitro mammalian red blood cell membrane lysis activity; format: cell-based; settings: read-out: RBC IC50
# Excerpt: as §2
# [21] = tested on: plasma protein; format: in vitro ADME
# Excerpt: as §2
# E. Coli RNAP, sequence (P0A8V2 whole entry): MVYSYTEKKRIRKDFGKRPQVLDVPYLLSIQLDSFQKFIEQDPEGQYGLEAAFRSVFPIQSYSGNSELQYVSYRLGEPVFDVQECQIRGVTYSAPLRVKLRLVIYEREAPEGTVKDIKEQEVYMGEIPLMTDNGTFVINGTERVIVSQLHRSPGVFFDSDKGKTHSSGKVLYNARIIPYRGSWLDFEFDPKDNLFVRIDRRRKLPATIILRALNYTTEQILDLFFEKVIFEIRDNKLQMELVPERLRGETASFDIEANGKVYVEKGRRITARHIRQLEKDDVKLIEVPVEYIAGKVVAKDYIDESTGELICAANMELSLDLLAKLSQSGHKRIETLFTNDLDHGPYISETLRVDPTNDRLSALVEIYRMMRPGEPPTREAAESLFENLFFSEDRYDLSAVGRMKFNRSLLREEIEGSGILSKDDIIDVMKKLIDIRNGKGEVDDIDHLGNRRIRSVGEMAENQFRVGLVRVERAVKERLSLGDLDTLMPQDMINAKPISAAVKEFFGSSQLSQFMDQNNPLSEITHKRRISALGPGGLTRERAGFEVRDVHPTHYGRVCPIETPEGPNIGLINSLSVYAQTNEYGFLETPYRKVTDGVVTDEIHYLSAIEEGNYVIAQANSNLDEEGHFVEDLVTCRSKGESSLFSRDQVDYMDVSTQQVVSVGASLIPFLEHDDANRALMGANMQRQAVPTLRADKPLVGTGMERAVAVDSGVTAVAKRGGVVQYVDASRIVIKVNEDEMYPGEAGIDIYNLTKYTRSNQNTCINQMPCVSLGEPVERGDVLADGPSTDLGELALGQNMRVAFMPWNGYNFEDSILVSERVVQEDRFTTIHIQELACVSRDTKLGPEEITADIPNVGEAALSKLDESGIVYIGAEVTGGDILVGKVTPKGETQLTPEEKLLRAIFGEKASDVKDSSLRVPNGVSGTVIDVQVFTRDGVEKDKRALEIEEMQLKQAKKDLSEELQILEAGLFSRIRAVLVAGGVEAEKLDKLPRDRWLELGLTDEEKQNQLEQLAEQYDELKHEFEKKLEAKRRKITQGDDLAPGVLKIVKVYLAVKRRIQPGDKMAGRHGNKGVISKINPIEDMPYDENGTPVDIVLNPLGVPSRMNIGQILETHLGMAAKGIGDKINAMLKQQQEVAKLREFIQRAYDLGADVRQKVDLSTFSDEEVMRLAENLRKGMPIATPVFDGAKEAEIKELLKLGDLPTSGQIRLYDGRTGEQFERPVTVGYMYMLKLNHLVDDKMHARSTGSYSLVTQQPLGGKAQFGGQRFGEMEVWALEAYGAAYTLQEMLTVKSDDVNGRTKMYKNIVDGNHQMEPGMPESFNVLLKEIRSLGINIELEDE
# E. Coli RNAP, sequence (P0A8T7 whole entry): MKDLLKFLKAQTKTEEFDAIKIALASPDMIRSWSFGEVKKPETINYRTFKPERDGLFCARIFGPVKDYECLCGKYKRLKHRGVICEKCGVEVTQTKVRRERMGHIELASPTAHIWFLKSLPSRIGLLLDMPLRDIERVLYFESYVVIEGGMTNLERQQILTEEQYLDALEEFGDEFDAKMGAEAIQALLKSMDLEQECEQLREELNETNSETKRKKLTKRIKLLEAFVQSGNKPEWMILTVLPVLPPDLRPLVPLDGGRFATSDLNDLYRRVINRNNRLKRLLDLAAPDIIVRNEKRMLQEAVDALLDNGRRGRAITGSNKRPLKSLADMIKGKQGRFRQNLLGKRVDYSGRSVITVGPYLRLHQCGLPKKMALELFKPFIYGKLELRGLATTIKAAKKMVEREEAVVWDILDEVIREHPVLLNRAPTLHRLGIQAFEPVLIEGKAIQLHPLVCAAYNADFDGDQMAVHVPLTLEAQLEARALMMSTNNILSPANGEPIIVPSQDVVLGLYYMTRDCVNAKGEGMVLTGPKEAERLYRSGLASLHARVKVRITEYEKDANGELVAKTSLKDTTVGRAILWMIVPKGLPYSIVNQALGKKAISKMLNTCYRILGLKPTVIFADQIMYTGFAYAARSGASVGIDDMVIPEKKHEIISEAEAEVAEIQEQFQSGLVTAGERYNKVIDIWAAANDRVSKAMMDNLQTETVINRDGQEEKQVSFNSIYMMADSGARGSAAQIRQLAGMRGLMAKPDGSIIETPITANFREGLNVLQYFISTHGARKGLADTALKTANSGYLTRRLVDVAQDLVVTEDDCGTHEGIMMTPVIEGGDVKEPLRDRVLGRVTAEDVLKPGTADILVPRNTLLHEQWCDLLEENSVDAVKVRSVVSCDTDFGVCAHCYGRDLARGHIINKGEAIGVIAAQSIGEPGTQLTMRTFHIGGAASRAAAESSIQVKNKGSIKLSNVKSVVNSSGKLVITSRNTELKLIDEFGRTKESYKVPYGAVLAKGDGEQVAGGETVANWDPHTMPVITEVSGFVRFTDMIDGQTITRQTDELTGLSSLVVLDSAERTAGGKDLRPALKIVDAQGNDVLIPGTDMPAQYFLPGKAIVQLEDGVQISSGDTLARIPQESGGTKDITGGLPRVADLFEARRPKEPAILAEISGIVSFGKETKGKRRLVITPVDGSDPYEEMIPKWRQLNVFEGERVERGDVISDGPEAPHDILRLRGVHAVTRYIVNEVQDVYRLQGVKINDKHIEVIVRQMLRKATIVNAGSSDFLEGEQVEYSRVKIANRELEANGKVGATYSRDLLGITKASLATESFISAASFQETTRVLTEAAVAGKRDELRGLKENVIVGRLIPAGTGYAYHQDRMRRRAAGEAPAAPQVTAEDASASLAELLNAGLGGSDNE
# E. Coli RNAP, sequence (P0A7Z4 whole entry partner): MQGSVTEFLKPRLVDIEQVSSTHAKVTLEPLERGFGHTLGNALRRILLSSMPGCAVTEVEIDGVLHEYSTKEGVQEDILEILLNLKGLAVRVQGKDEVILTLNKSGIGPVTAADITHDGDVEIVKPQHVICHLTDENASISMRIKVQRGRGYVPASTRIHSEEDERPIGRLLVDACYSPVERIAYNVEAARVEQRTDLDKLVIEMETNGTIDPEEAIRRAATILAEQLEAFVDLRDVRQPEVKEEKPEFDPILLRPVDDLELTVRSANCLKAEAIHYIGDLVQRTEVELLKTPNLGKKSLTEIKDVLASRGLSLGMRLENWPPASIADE
# E. Coli RNAP, sequence (P0A800 whole entry partner): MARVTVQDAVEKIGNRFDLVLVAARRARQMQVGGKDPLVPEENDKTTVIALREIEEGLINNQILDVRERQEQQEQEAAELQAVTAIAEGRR
compound,measurement,setting,value
O=C(NC12CC3CC(CC(C3)C1)C2)C1=C(O)C2CS[C@@H](c3ccc(F)cc3Cl)N2C1=O (stereo partly shown),Bioactivity (mm) S. aureus 0.001 mg/ml,[1],21 mm
same,Bioactivity (mm) S. aureus 0.01 mg/ml,[1],25 mm
same,Bioactivity (mm) E. coli 0.01 mg/ml,[2],14 mm
CC(C)(C)[Si](C)(C)OCc1ccc([C@@H]2SCC3C(O)=C(C(=O)NC45CC6CC(CC(C6)C4)C5)C(=O)N32)cc1 (stereo partly shown),Bioactivity (mm) S. aureus 0.25 mg/ml,[1],12 mm
same,Bioactivity (mm) S. aureus 0.5 mg/ml,[1],13 mm
CCOC(=O)CC(=O)N1C(c2ccc(F)cc2Cl)SC[C@@H]1C(=O)OC (stereo partly shown),Bioactivity (mm) E. coli (4 mg/ml),[2]; 4 mg/ml,16 mm
CC(C)(C)C1OCC2(C)C(=O)C(C(=O)NC34CC5CC(CC(C5)C3)C4)C(=O)N12 (racemic) [(±)-2A],HEK LD50,[3],30.3 µM
same,SOL,[4],75 to 150 µM
same,MIC S26,[5],2 µg/mL
same,MIC S4,[6],1 µg/mL
same,MIC E2,[7],1 µg/mL
same,MIC P9,[8],1 µg/mL
same,MIC P9B,[8],1 µg/mL
same,CAN MIC,[9],>32 µg/mL
same,MIC H4,[10],1 µg/mL
same,IC50,[11],0.38 µM
same,MIC E1,[12],1 µg/mL
same,MIC H3,[13],2 µg/mL
same,MIC S2,[14],1 µg/mL
same,IC50,[15],17 µM
same,MIC S1,[16],1 µg/mL
same,PMB LD50,[17],30.3 µM
same,MIC P1,[18],1 µg/mL
same,IC50,[19],10.8 µM
same,IC50,[20],> 100 µM
O=C(NC12CC3CC(CC(C3)C1)C2)C1=C(O)C2CS[C@@H](c3ccc(F)cc3)N2C1=O (stereo partly shown),Bioactivity (mm) S. aureus 0.001 mg/ml,[1],21 mm
same,Bioactivity (mm) S. aureus 0.01 mg/ml,[1],27 mm
same,Bioactivity (mm) E. coli 0.01 mg/ml,[2],14 mm
CCOC(=O)C1=C(O)C2CSC(c3cccc(Br)c3)N2C1=O (stereo not shown),Bioactivity (mm) S. aureus (4 mg/ml),[1]; Cm,2.0 Cm
CCOC(=O)C1=C(O)C2CSC(c3ccc(Br)cc3)N2C1=O (stereo not shown),Bioactivity (mm) S. aureus (4 mg/ml),[1]; Cm,1.7 Cm
Cc1cc(Cl)ccc1NC(=O)C1=C(O)C2CS[C@@H](c3ccc(Br)cc3)N2C1=O (stereo partly shown),Bioactivity (mm) S. aureus 0.25 mg/ml,[1],25 mm
same,Bioactivity (mm) S. aureus 0.5 mg/ml,[1],26 mm
O=C(NC12CC3CC(CC(C3)C1)C2)C1=C(O)C2CS[C@@H](c3ccccc3)N2C1=O (stereo partly shown),Bioactivity (mm) S. aureus 0.01 mg/ml,[1],22 mm
same,Bioactivity (mm) E. coli 0.001 mg/ml,[2]; 0.001 mg/ml,15 mm
same,Bioactivity (mm) E. coli 0.01 mg/ml,[2],15 mm
CCOC(=O)C12C(=O)C(=C(O)CC(C)(C)CC(=O)OCCC34CC5CC(CC(C5)C3)C4)C(=O)N1C(C(C)(C)C)OC2C (racemic) [Compound 6G],HEK LD50,[3],10.1 µM
same,SOL,[4],>300 µM
same,MIC S26,[5],1 µg/mL
same,MIC S4,[6],1 µg/mL
same,MIC E2,[7],0.5 µg/mL
same,MIC P9,[8],1 µg/mL
same,MIC P9B,[8],4 µg/mL
same,CAN MIC,[9],>32 µg/mL
same,MIC H4,[10],2 µg/mL
same,IC50,[11],1.9 µM
same,MIC E1,[12],1 µg/mL
same,MIC H3,[13],>64 µg/mL
same,MIC S2,[14],0.5 µg/mL
same,IC50,[15],2.4 µM
same,MIC S1,[16],0.5 µg/mL
same,PMB LD50,[17],>90.9 µM
same,MIC P1,[18],2 µg/mL
same,IC50,[19],> 100 µM
same,IC50,[20],> 100 µM
CC(C)(C)C1OCC2(C)C(O)=C(C(=O)NCC3CCCCC3)C(=O)N12 (racemic) [(±)-2E],HEK LD50,[3],90.9 µM
same,SOL,[4],>300 µM
same,MIC S26,[5],4 µg/mL
same,MIC S4,[6],4 µg/mL
same,MIC E2,[7],1 µg/mL
same,PPB,[21],96.6%
same,MIC P9,[8],1 µg/mL
same,MIC P9B,[8],1 µg/mL
same,CAN MIC,[9],>32 µg/mL
same,MIC H4,[10],0.12 µg/mL
same,IC50,[11],0.68 µM
same,MIC E1,[12],2 µg/mL
same,MIC H3,[13],4 µg/mL
same,MIC S2,[14],2 µg/mL
same,IC50,[15],31 µM
same,MIC S1,[16],4 µg/mL
same,PMB LD50,[17],90.9 µM
same,MIC P1,[18],2 µg/mL
same,IC50,[19],84.3 µM
same,IC50,[20],> 100 µM
CCOC(=O)C1=C(O)C2CS[C@@H](c3ccc(F)cc3Cl)N2C1=O (stereo partly shown),Bioactivity (mm) S. aureus (4 mg/ml),[1],18 mm
CCOC(=O)C12C(=O)C(=C(O)CC34CC5CC(C)(CC(C)(C5)C3)C4)C(=O)N1C(C(C)(C)C)OC2C (racemic) [Compound 6C],HEK LD50,[3],90.9 µM
same,SOL,[4],>300 µM
same,MIC S26,[5],2 µg/mL
same,MIC S4,[6],2 µg/mL
same,MIC E2,[7],1 µg/mL
same,PPB,[21],99.8%
same,MIC P9,[8],0.5 µg/mL
same,MIC P9B,[8],1 µg/mL
same,CAN MIC,[9],>32 µg/mL
same,MIC H4,[10],0.25 µg/mL
same,IC50,[11],3.2 µM
same,MIC E1,[12],2 µg/mL
same,MIC H3,[13],64 µg/mL
same,MIC S2,[14],1 µg/mL
same,IC50,[15],4 µM
same,MIC S1,[16],2 µg/mL
same,PMB LD50,[17],>90.9 µM
same,MIC P1,[18],0.5 µg/mL
same,IC50,[19],> 100 µM
same,IC50,[20],> 100 µM
CCOC(=O)C1=C(O)C2CSC(c3ccc(CO[Si](C)(C)C(C)(C)C)cc3)N2C1=O (stereo not shown),Bioactivity (mm) S. aureus (4 mg/ml),[1]; Cm,2.3 Cm
CCOC(=O)C1=C(O)C2CS[C@@H](c3ccc([N+](=O)[O-])cc3)N2C1=O (stereo partly shown),Bioactivity (mm) S. aureus (4 mg/ml),[1],16 mm
O=C(NC12CC3CC(CC(C3)C1)C2)C1=C(O)C2CS[C@@H](c3ccc([N+](=O)[O-])cc3)N2C1=O (stereo partly shown),Bioactivity (mm) S. aureus 0.001 mg/ml,[1],19 mm
same,Bioactivity (mm) S. aureus 0.01 mg/ml,[1],25 mm
same,Bioactivity (mm) E. coli 0.01 mg/ml,[2],14 mm
